Patent US20080176906A1, “Substituted Pyrrole Derivative” (Takeda Pharmaceutical Company Limited, priority 2004, published 2008)
Residue numbers refer to the chain shown, from its start.

Experiments:
[1] = tested on: human prostate cancer cell LNCaP-FGC; experiment: Prostate specific antigen (PSA) production inhibition in prostate cancer cell; type: cell-based; conditions: 72 h, 1 μM compound, testosterone 1 ng/mL, three days, PSA in culture supernatant by ELISA, testosterone non-added group 100%, testosterone-added group 0%, read-out: PSA production Inhibitory rate (%) at 1 μM
Description: A human prostate cancer cell LNCaP-FGC was inoculated on a 96-well plate at 5000 cells/100 μL/well and, on the next day, testosterone having the final concentration of 1 ng/mL and 1 μM of a compound were added. Three days after addition, the PSA concentration in the culture supernatant was measured by ELISA, and a PSA production inhibition rate was calculated, letting the rate of a testosterone non-added group to be 100%, and letting the rate of a testosterone-added group to be 0%.

[2] = molecular target: T1, wild-type androgen receptor (AR) (Homo sapiens, UniProt P10275); experiment: AR binding inhibitory test (wild type); conditions: 1 μM compound, 3 nM miboleron, 4° C. for 3 hours, dextran/charcoal B/F separation; read-out: Inhibitory rate (%) at 1 μM, Wild type
T1 sequence (P10275 1-920): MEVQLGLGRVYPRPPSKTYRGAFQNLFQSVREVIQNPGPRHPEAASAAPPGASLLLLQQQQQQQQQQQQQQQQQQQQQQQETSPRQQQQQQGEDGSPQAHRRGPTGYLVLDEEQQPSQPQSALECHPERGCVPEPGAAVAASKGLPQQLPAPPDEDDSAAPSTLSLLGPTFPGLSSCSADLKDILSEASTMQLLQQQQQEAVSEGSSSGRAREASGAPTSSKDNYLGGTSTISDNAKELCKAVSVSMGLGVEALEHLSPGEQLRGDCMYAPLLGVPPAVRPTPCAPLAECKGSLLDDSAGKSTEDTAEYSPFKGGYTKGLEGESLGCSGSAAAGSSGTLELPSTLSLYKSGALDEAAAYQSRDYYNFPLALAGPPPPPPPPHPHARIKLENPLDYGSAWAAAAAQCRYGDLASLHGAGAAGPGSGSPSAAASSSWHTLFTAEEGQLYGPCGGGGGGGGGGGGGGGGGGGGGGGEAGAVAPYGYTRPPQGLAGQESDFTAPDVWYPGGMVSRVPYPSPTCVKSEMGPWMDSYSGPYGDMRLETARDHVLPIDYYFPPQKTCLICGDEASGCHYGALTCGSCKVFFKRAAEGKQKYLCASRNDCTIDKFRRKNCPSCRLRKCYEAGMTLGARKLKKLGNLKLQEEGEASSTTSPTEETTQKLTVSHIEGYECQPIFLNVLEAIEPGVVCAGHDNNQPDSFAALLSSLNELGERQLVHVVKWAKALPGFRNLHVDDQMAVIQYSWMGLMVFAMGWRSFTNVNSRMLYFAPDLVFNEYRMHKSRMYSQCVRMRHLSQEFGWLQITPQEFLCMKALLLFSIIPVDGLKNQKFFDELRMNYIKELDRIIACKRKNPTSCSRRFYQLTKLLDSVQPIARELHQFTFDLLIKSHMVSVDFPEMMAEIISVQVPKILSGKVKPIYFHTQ
Description: (§1) 3 nM miboleron and 1 μM of a compound was added to a solution containing a wild-type androgen receptor (AR) or an androgen receptor (AR) having a LNCaP type mutation, this was incubated at 4° C. for 3 hours, and B(Bound)/F(Free) separation was performed by a dextran/charcoal method. A label count of B was measured, and an inhibition rate of the compound was calculated.

[3] = molecular target: T2, androgen receptor (AR) having a LNCaP type mutation (Homo sapiens, UniProt P10275, T878A); experiment: AR binding inhibitory test (LNCaP type); conditions: 1 μM compound, 3 nM miboleron, 4° C. for 3 hours, dextran/charcoal B/F separation; read-out: Inhibitory rate (%) at 1 μM, LNCaP type
T2 sequence (P10275 1-920 T878A): T1 sequence (P10275 1-920) with T878A
Description: as §1

[4] = molecular target: T3, mutated AR (W741C) (Homo sapiens, UniProt P10275, W742C); experiment: AR transcription inhibition test (luciferase reporter in Cos-7); type: cell-based; conditions: 0.1 μM compound, DHT 0.04 μM, 24 hours, luciferase activity, relative to a control
T3 construct: expressed in transfected cells; host or cells: Cos-7
T3 sequence (P10275 1-920 W742C): T1 sequence (P10275 1-920) with W742C
Description: 5,000,000 Cells of Cos-7 was inoculated on a flask, and cultured in a culturing solution (DMEM+10% Dextran Charcoal (DCC)-Fetal Bovine Serum (FBS)+2 mM glutamine) for 24 hours, and a vector DNA in which mutated AR (W741C) had been inserted, and a vector DNA in which a luciferase gene had been connected downstream of an androgen-responsive promoter were transfected by a liposome method. After two hours, the medium was exchanged, the cells were cultured for 3 hours, DHT (dihydrotestosterone) having the final concentration of 0.04 μM and an assessment compound having the final concentration of 0.1 μM were added, and the cells were cultured for 24 hours, and luciferase activity was measured to investigate AR transcription inhibition activity of the assessment compound.

[5] = tested on: mouse prostate; experiment: Test of reduction in weight of mouse prostate; type: in vivo; conditions: 8 week old male mouse, drug non-addition 0%, castration 100%
Excerpt: A rate of reduction in a prostate weight is shown in Table 5, letting at drug non-addition to be 0%, and letting at castration to be 100%.

Cc1c(-c2ccc(C#N)cc2)cc(C2CC2)n1Cc1cnc(Cl)c(CO)c1 [Example 48, 4-(1-{[6-Chloro-5-(hydroxymethyl)pyridin-3-yl]methyl}-5-cyclopropyl-2-methyl-1H-pyrrol-3-yl)benzonitrile]
inhibition at 1 µM [1]: 98% | inhibition at 1 µM [2]: 30% | inhibition at 1 µM [3]: 87%

Cc1cc(-c2ccc(C#N)cc2)c(C)n1Cc1cnc(Cl)c(CO)c1 [Example 46, 4-(1-{[6-Chloro-5-(hydroxymethyl)pyridin-3-yl]methyl}-2,5-dimethyl-1H-pyrrol-3-yl)benzonitrile]
inhibition at 1 µM [1]: 95% | inhibition at 1 µM [2]: 86% | inhibition at 1 µM [3]: 89%

Cc1cc(-c2ccc(C#N)cc2)c(C#N)n1Cc1cnc(Cl)c(CO)c1 [Example 52, 1-{[6-Chloro-5-(hydroxymethyl)pyridin-3-yl]methyl}-3-(4-cyanophenyl)-5-methyl-1H-pyrrole-2-carbonitrile]
inhibition at 1 µM [1]: 99%

Cc1c(C#N)c(-c2cccc(C#N)c2)c(C)n1Cc1cnc(Cl)c(CO)c1 [Compound 7, 1-{[6-Chloro-5-(hydroxymethyl)pyridin-3-yl]methyl}-4-(3-cyanophenyl)-2,5-dimethyl-1H-pyrrole-3-carbonitrile]
inhibition at 1 µM [1]: 94%

CCc1cc(-c2ccc(C#N)cc2)c(C)n1Cc1cnc(Cl)c(CO)c1 [Example 47, 4-(1-{[6-Chloro-5-(hydroxymethyl)pyridin-3-yl]methyl}-5-ethyl-2-methyl-1H-pyrrol-3-yl)benzonitrile]
inhibition at 1 µM [2]: 50% | inhibition at 1 µM [3]: 81%

CCCc1c(C#N)c(-c2ccc(C#N)cc2)c(C)n1Cc1cnc(Cl)c(CO)c1 [Compound 3, 1-{[6-Chloro-5-(hydroxymethyl)pyridin-3-yl]methyl}-4-(4-cyanophenyl)-5-methyl-2-propyl-1H-pyrrole-3-carbonitrile]
inhibition at 1 µM [1]: 99% | AR transcription Inhibitory rate (%) at 0.1 μM [4]: 78% | inhibition at 1 µM [2]: 96% | inhibition at 1 µM [3]: 99%

Cc1c(-c2ccc(C#N)cc2)c(C#N)c(C2CC2)n1Cc1cnc(Cl)c(CO)c1 [Compound 5, 1-{[6-Chloro-5-(hydroxymethyl)pyridin-3-yl]methyl}-4-(4-cyanophenyl)-2-cyclopropyl-5-methyl-1H-pyrrole-3-carbonitrile]
inhibition at 1 µM [1]: 99% | AR transcription Inhibitory rate (%) at 0.1 μM [4]: 78% | inhibition at 1 µM [2]: 98% | inhibition at 1 µM [3]: 96%

CCc1c(C#N)c(-c2ccc(C#N)cc2)c(C)n1Cc1cnc(Cl)c(CO)c1 [Compound 2, 1-{[6-Chloro-5-(hydroxymethyl)pyridin-3-yl]methyl}-4-(4-cyanophenyl)-2-ethyl-5-methyl-1H-pyrrole-3-carbonitrile]
inhibition at 1 µM [1]: 95% | AR transcription Inhibitory rate (%) at 0.1 μM [4]: 30% | inhibition at 1 µM [2]: 99% | inhibition at 1 µM [3]: 94%

Cc1c(C#N)c(-c2ccc(C#N)cc2)c(C)n1Cc1ccc(Cl)c(CO)c1 [Compound 26, 1-[4-Chloro-3-(hydroxymethyl)benzyl]-4-(4-cyanophenyl)-2,5-dimethyl-1H-pyrrole-3-carbonitrile]
inhibition at 1 µM [1]: 97% | AR transcription Inhibitory rate (%) at 0.1 μM [4]: 53% | inhibition at 1 µM [2]: 98% | inhibition at 1 µM [3]: 93%

Cc1c(C#N)c(-c2ccc(C#N)cc2)c(C)n1Cc1cnc(Cl)c(C(O)C(F)(F)F)c1 (stereo not drawn) [Example 38, 1-{[6-Chloro-5-(2,2,2-trifluoro-1-hydroxyethyl)pyridin-3-yl]methyl}-4-(4-cyanophenyl)-2,5-dimethyl-1H-pyrrole-3-carbonitrile]
inhibition at 1 µM [1]: 94% | Reduction rate (%) of prostate weight ([5]; orally 50 mg/kg/day for 7 days): 68%

CC(O)(CS(=O)(=O)c1ccc(F)cc1)C(=O)Nc1ccc(C#N)c(C(F)(F)F)c1 (stereo not drawn) [bicalutamide, reference compound]
inhibition at 1 µM [1]: 58% | Reduction rate (%) of prostate weight ([5]; orally 100 mg/kg/day (bicalutamide) for 7 days): 40%
